Source: patent US20090018111A1, “Novel Antimicrobial Medicament” (priority 2004, published 2009)
Like-named read-outs stand apart in the source and are kept apart here.

Tests used:
Assay in all cases: Sensitivity test (agar dilution), clinical isolate
Type in all cases: cell-based, Acinetobacter calcoaceticus and Acinetobacter lwoffi
[1] = tested on: Acinetobacter spp. 1198
Description: (§1) In addition, the antibacterial activities were tested against strains which are comparatively less sensitive to β-lactam compounds, namely clinically isolated 13 strains of Acinetobacter calcoaceticus and Acinetobacter lwoffi, clinically isolated 11 strains of Serratia marcescens, clinically isolated 12 strains of Burkholderia cepacia, and clinically isolated 15 strains of Pseudomonas aeruginosa.
(§2) According to the standard method of Japan Chemotherapeutic Society (Chemotherapy, vol. […], p 76-79 (1981)) the test was carried out using the agar dilution method. After dissolving test samples in distilled water, agar medium containing the test samples was prepared in such a manner that the final concentration became twice serial dilution by pouring serially diluted combination drug solution or a single drug solution into agar medium. As agar medium was used Mueller Hinton Agar medium (MHA). Then, each strain was cultivated over night at 37° C. in an incubator and suspended in buffered saline solution with gelatin (BSG) in the concentration of about 10^6 CFU/ml. The suspension (about 5 μl) containing test strains was inoculated to the medium containing the test samples by Micro Planter.
(§3) Each drug was weighed, and dissolved in distilled water to give a test sample. When the drugs are used in combination, two kinds of solution containing each drug were mixed so as to be various ratio of concentration to give a mixed solution. When the sample is subjected to sensitivity test, this mixed solution was diluted by twice serial dilution method.
(§4) Furthermore, when the drug is solely used, each test sample was used as it is, and diluted by twice serial dilution method from the maximum concentration to the minimum concentration.

[2] = tested on: Acinetobacter spp. 175
Description: as §1, §2, §3, §4

[3] = tested on: Acinetobacter spp. Jan-99 (second line, r15)
Description: as §1, §2, §3, §4

[4] = tested on: Acinetobacter spp. 1338-2
Description: as §1, §2, §3, §4

[5] = tested on: Acinetobacter spp. Jan-54
Description: as §1, §2, §3, §4

[6] = tested on: Acinetobacter spp. 1195
Description: as §1, §2, §3, §4

[7] = tested on: Acinetobacter spp. 14712
Description: as §1, §2, §3, §4

[8] = tested on: Acinetobacter spp. 227-1
Description: as §1, §2, §3, §4

[9] = tested on: Acinetobacter spp. 1399-2
Description: as §1, §2, §3, §4

[10] = tested on: Acinetobacter spp. Jan-81
Description: as §1, §2, §3, §4

[11] = SPP.1198, Concomitant (ME:SM = 1:1), read-out: MIC
[12] = SPP.1198, Concomitant (ME:SM = 1:4), read-out: MIC
[13] = SPP.1198, Concomitant (ME:SM = 2:1), read-out: MIC
[14] = Acinetobacter, SPP.175, Concomitant (ME:SM = 1:2), read-out: MIC
[15] = Acinetobacter, SPP.175, Concomitant (ME:SM = 1:4), read-out: MIC
[16] = Concomitant (ME:SM = 1:1), read-out: MIC
[17] = Concomitant (ME:SM = 1:2), read-out: MIC
[18] = Concomitant (ME:SM = 2:1), read-out: MIC
[19] = SPP.13382, Concomitant (ME:SM = 1:1), read-out: MIC
[20] = SPP.13382, Concomitant (ME:SM = 1:2), read-out: MIC
[21] = SPP.13382, Concomitant (ME:SM = 2:1), read-out: MIC
[22] = SPP.13382, alone, read-out: MIC
[23] = SPP.1195, Concomitant (ME:SM = 1:1), read-out: MIC
[24] = SPP.1195, Concomitant (ME:SM = 1:4), read-out: MIC
[25] = SPP.1195, Concomitant (ME:SM = 2:1), read-out: MIC
[26] = SPP.14712, Concomitant (ME:SM = 1:1)
[27] = SPP.14712, Concomitant (ME:SM = 1:2)
[28] = SPP.14712, Concomitant (ME:SM = 1:4)
[29] = SPP.14712, Concomitant (ME:SM = 2:1)
[30] = SPP.2271, Concomitant (ME:SM = 1:1)
[31] = SPP.2271, Concomitant (ME:SM = 1:2)
[32] = SPP.2271, Concomitant (ME:SM = 1:4)
[33] = SPP.2271, Concomitant (ME:SM = 2:1)
[34] = SPP.13992, Concomitant (ME:SM = 1:1)
[35] = SPP.13992, Concomitant (ME:SM = 1:2)
[36] = SPP.13992, Concomitant (ME:SM = 1:4)
[37] = SPP.13992, Concomitant (ME:SM = 2:1)

Measured: MIC

C[C@H]1C=C(c2csc(SC3=C(C(=O)O)N4C(=O)[C@H]([C@@H](C)O)[C@H]4[C@H]3C)n2)CN1 [SM, (4R,5S,6S)-6-[(1R)-1-Hydroxyethyl]-4-methyl-3-({4-[(5S)-5-methyl-2,5-dihydro-1H-pyrrol-3-yl]-1,3-thiazol-2-yl}sulfanyl)-7-oxo-1-azabicyclo[3.2.0]hept-2-ene-2-carboxylic acid]
32 µg/mL: [10]; alone
0.5 µg/mL: [1]; SPP.1198, alone, read-out: MIC | [2]; Acinetobacter, SPP.175, alone, read-out: MIC | [3]; [16] | [3]; [17] | [3]; Concomitant (ME:SM = 1:4), read-out: MIC | [4]; [19] | [4]; SPP.13382, Concomitant (ME:SM = 1:4), read-out: MIC | [4]; [22] | [5]; Concomitant (ME:SM = 1:1) | [6]; SPP.1195, alone, read-out: MIC | [7]; [26] | [8]; [30] | [9]; [34]
1 µg/mL: [4]; [20] | [5]; Concomitant (ME:SM = 1:2) | [5]; Concomitant (ME:SM = 1:4) | [7]; [27] | [7]; [28] | [8]; [31] | [8]; [32] | [9]; [35] | [9]; [36]
0.125 µg/mL: [1]; [13] | [2]; Acinetobacter, SPP.175, Concomitant (ME:SM = 1:1), read-out: MIC | [2]; [14] | [6]; [25]
0.063 µg/mL: [2]; Acinetobacter, SPP.175, Concomitant (ME:SM = 2:1), read-out: MIC
8 µg/mL: [10]; Concomitant (ME:SM = 1:1) | [10]; Concomitant (ME:SM = 1:4)
2 µg/mL: [3]; alone, read-out: MIC | [5]; alone | [7]; SPP.14712, alone | [8]; SPP.2271, alone | [9]; SPP.13992, alone | [10]; Concomitant (ME:SM = 2:1)
0.25 µg/mL: [1]; [11] | [1]; SPP.1198, Concomitant (ME:SM = 1:2), read-out: MIC | [1]; [12] | [2]; [15] | [3]; [18] | [4]; [21] | [5]; Concomitant (ME:SM = 2:1) | [6]; [23] | [6]; SPP.1195, Concomitant (ME:SM = 1:2), read-out: MIC | [6]; [24] | [7]; [29] | [8]; [33] | [9]; [37]
4 µg/mL: [10]; Concomitant (ME:SM = 1:2)

C[C@@H](O)[C@H]1C(=O)N2C(C(=O)O)=C(S[C@@H]3CN[C@H](C(=O)N(C)C)C3)[C@H](C)[C@H]12 [MEPM, meropenem]
0.063 µg/mL: [1]; [12] | [2]; [14] | [2]; [15] | [6]; [24]
0.25 µg/mL: [1]; [11] | [1]; [13] | [3]; [17] | [5]; Concomitant (ME:SM = 1:4) | [6]; [23] | [6]; [25] | [6]; SPP.1195, alone, read-out: MIC | [7]; [28] | [8]; [32] | [9]; [36]
8 µg/mL: [10]; Concomitant (ME:SM = 1:1)
0.125 µg/mL: [1]; SPP.1198 | [2]; Acinetobacter, SPP.175 | [2]; Concomitant (ME:SM = 1:1) | [2]; Concomitant (ME:SM = 2:1) | [3] | [4]; SPP.13382 | [6]; SPP.1195
1 µg/mL: [4]; [22] | [5]; alone | [7]; SPP.14712, alone | [8]; SPP.2271, alone
4 µg/mL: [10]; Concomitant (ME:SM = 2:1) | [10]; alone
0.5 µg/mL: [1]; SPP.1198, alone, read-out: MIC | [3]; [16] | [3]; [18] | [3]; alone, read-out: MIC | [4]; [19] | [4]; [20] | [4]; [21] | [5]; Concomitant (ME:SM = 1:1) | [5]; Concomitant (ME:SM = 1:2) | [5]; Concomitant (ME:SM = 2:1) | [7]; [26] | [7]; [27] | [7]; [29] | [8]; [30] | [8]; [31] | [8]; [33] | [9]; [34] | [9]; [35] | [9]; [37] | [9]; SPP.13992, alone
2 µg/mL: [10]; Concomitant (ME:SM = 1:2) | [10]; Concomitant (ME:SM = 1:4)
